In patent US20190345138A1, “HETEROCYCLIC AMIDES AS KINASE INHIBITORS” (GlaxoSmithKline Intellectual Property Development Limited, priority 2016, published 2019):
“Also recorded” adds a separate entry of the source.

Key:
db/db mice = assay: glucose homeostasis in db/db mice; assay type: in vivo, mouse; settings: 100 mg/kg/day in chow
Excerpt: We therefore investigated the ability of our small molecule RIPK1 inhibitor to improve glucose homeostasis in a diabetic animal model. Mice genetically deficient for the leptin receptor (db/db mice; Jackson Labs, BKS.Cg-Dock7m+/+Leprdb/J) are a widely used animal model of insulin resistance and diabetes. In our study, 4-week old male db/db mice were acclimated for a period of one week. At this point, when the mice were 5 weeks of age, the study was started. Mice were then divided into two group (n=10/group) and baseline measurements of non-fasted blood glucoses (using a glucometer) and body weight were taken. After baseline measurements, one group of mice was fed chow containing RIPK1 inhibitor (100 mg/kg/day, n=10) and the other remained on normal chow (n=10). Animals remained on these diets for 6 weeks. Additional measurements of non-fasted blood glucose and body weight were taken 2 and 4 weeks after study start. At week 8, mice were fasted overnight (16 hours) and fasted blood glucose and body weight were measured on the following day.

[1] = test system: Diet-induced obese, male mice C57Bl/6J; assay: obesity, high fat diet-fed mice; assay type: in vivo, mouse
Excerpt: Inflammation is known to be a contributing factor in the pathogenesis of diabetes and obesity (Chen. et. al., International Journal of Endocrinology (2015)). We therefore explored the effect of blocking RIPK1 kinase activity on body weight in mice made obese by chronic feeding of a high fat diet (HFD). Diet-induced obese, male mice C57Bl/6J (Jackson Labs Stock#380050) arrived at 22 weeks of age, with average body weight of 40 g and acclimated for one week and maintained on HFD. Mice were then acclimated to oral gavage with water for 7 days before study start. Thereafter mice received RIPK 1 inhibitor (50 mg/kg, bid, n=9) or vehicle (bid, n=9) for 19 days. Food intake was measured twice weekly and body weight was measured daily throughout the study.

EMT-6 (breast) = assay: syngeneic subcutaneous tumor model EMT-6; assay type: in vivo, mouse; settings: RIP1i = Example 78 40 mg/kg p.o. BID x up to 21 days
Description: (§1) The efficacy of RIP1 inhibition was tested in 12 different murine (6-8 week old) syngeneic subcutaenous tumor models. RIP1 inhibition was tested as a single agent in all models, with anti-PD1 combination arms added to the five of the final models.
(§2) T and C are the mean tumor volume of the treated and control groups, respectively, on a given day. • 2) Tumor and plasma collection at study end for further investigation.
(§3) The 12 syngenic cell lines were maintained in vitro with different medium (indicated in Table C) at 37° C. in an atmosphere of 5% CO2 in air. The tumor cells were routinely subcultured twice weekly. The cells in an exponential growth phase were harvested and counted for tumor inoculation.
(§4) Each mouse was inoculated subcutaneously with tumor cells in 0.1 mL of PBS for tumor development. The treatments were started when the mean tumor size reached approximately 80-120 mm^3 (around 100 mm^3).

CT26 (colon) = assay: syngeneic subcutaneous tumor model CT-26; assay type: in vivo, mouse; settings: RIP1i = Example 78 40 mg/kg p.o. BID x up to 21 days
Description: as §1, §2, §3, §4

H22 (hepatoma) = assay: syngeneic subcutaneous tumor model H-22; assay type: in vivo, mouse; settings: RIP1i = Example 78 40 mg/kg p.o. BID x up to 21 days
Description: as §1, §2, §3, §4

LL/2 (Lewis lung) = assay: syngeneic subcutaneous tumor model LL/2; assay type: in vivo, mouse; settings: RIP1i = Example 78 40 mg/kg p.o. BID x up to 21 days
Description: as §1, §2, §3, §4

Renca (renal) = assay: syngeneic subcutaneous tumor model Renca; assay type: in vivo, mouse; settings: RIP1i = Example 78 40 mg/kg p.o. BID x up to 21 days
Description: as §1, §2, §3, §4

A20 (B lymphoma) = assay: syngeneic subcutaneous tumor model A20; assay type: in vivo, mouse; settings: RIP1i = Example 78 40 mg/kg p.o. BID x up to 21 days
Description: as §1, §2, §3, §4

B16F10 (melanoma) = assay: syngeneic subcutaneous tumor model B16F10; assay type: in vivo, mouse; settings: RIP1i = Example 78 40 mg/kg p.o. BID x up to 21 days
Description: as §1, §2, §3, §4

Pan02 (pancreatic) = assay: syngeneic subcutaneous tumor model Pan02; assay type: in vivo, mouse; settings: Pan02, PG21; RIP1i = Example 78 40 mg/kg p.o. BID, alone or with anti-PD1
Description: as §1, §2, §3, §4

MC38 (colon) = assay: syngeneic subcutaneous tumor model MC38; assay type: in vivo, mouse; settings: RIP1i = Example 78 40 mg/kg p.o. BID, alone or with anti-PD1
Description: as §1, §2, §3, §4

B16BL6 (melanoma) = assay: syngeneic subcutaneous tumor model B16BL6; assay type: in vivo, mouse; settings: RIP1i = Example 78 40 mg/kg p.o. BID, alone or with anti-PD1
Description: as §1, §2, §3, §4

RM-1(prostate) = assay: syngeneic subcutaneous tumor model RM-1; assay type: in vivo, mouse; settings: RIP1i = Example 78 40 mg/kg p.o. BID, alone or with anti-PD1
Description: as §1, §2, §3, §4

MBT2 (bladder) = assay: syngeneic subcutaneous tumor model MBT2; assay type: in vivo, mouse; settings: RIP1i = Example 78 40 mg/kg p.o. BID, alone or with anti-PD1
Description: as §1, §2, §3, §4

[2] = test system: Sharpin-deficient mice (cpdm); assay: Sharpin-deficient mouse model of TNF-dependent dermatitis; assay type: in vivo; settings: food-based 100 or 10 mg/kg/day
Description: Sharpin-deficient mice (cpdm) develop a spontaneous and severe TNF- and RIPK1-dependent dermatitis and multi-organ immunopathology around 6-8 weeks of age (S. B. Berger et al., Journal of Immunology, 192(12):5476-5480, (2014)). Mice were dosed with RIP1 inhibitors at the time of weaning (3-4 weeks of age) prior to the development of dermatitis lesions or therapeutically after the development of dermatitis lesions (about 6 weeks of age) using a food-based dosing regimen, such that mice (4-7 mice per group) received on average 100 mg/kg/day or 10 mg/kg/day of RIP1 inhibitor in diet or control diet. […] The character of the lesion was categorized according the following, in order of increasing severity, 0=none, 1=excoriation only or one small punctuated crust (≤2 mm), 2=multiple, small punctuate crusts or coalescing crust (>2 mm), 3=erosion or ulceration. The regions were identified as: Region 1: the head cranial to the medial pinna attachment and/or lesions affecting the mandible cranial to the sternum, Region 2: inner and outer pinna, dorsal cervical region caudal to the medial pinna attachment, dorsal and ventral thorax, and thoracic limbs, Region 3: any region caudal to the ribcage. A score for the regions affected was categorized per the following: 0=none; 1=Region 2 or 3; 2=Region 2 and 3; 3=Region 1+/−other affected regions. […]

N#Cc1cc(N2CCC(C(=O)N3N=CC[C@H]3c3cc(F)cc(F)c3)CC2)ncn1 [Example 78, (S)-6-(4-(5-(3,5-difluorophenyl)-4,5-dihydro-1H-pyrazole-1-carbonyl)piperidin-1-yl)pyrimidine-4-carbonitrile]
fasted blood glucose (db/db mice; week 8, fasted overnight (16 hours), versus normal chow): improves fasted blood glucose; also recorded: significantly lower | non-fasted (fed) blood glucose (db/db mice; weeks 2 and 4, versus normal chow): improves fed blood glucose over time; also recorded: Reduced non-fasted blood glucose at weeks 2 and 4 | body weight ([1]; 50 mg/kg bid PO for 19 days, versus vehicle): did not gain weight | food intake ([1]; 50 mg/kg bid PO, day 2 and day 5, versus vehicle): initially reduced their food intake | Mean tumor growth inhibition (TGI) at model termination (EMT-6 (breast)): 21% | Mean tumor growth inhibition (TGI) at model termination (CT26 (colon)): 19% | Mean tumor growth inhibition (TGI) at model termination (H22 (hepatoma)): 19% | Mean tumor growth inhibition (TGI) at model termination (LL/2 (Lewis lung)): 22% | Mean tumor growth inhibition (TGI) at model termination (Renca (renal)): 19% | Mean tumor growth inhibition (TGI) at model termination (A20 (B lymphoma)): 0.6% | Mean tumor growth inhibition (TGI) at model termination (B16F10 (melanoma)): 20% | Mean tumor growth inhibition (TGI) at model termination (Pan02 (pancreatic)): PG21: 46% | Mean tumor growth inhibition (TGI) at model termination (MC38 (colon)): −16% | Mean tumor growth inhibition (TGI) at model termination (B16BL6 (melanoma)): 16% | Mean tumor growth inhibition (TGI) at model termination (RM-1(prostate)): −8% | Mean tumor growth inhibition (TGI) at model termination (MBT2 (bladder)): −4% | development of severe dermatitis ([2]; pre-dosing from weaning (3-4 weeks of age)): complete protection from the development of severe dermatitis | established dermatitis ([2]; therapeutic dosing after development of lesions (about 6 weeks of age)): rescued established dermatitis
